# In publication PMC3774728, “Identification of the Plant Compound Geraniin as a Novel Hsp90 Inhibitor” (PLoS ONE, 2013):
# How the values were obtained:
# HeLa cells [1] = assay: MTT cell viability, HeLa; format: cell-based, human; settings: Homo sapiens, 24 h
# Experimental: (§1) To ensure logarithmic growth, cells were subcultured every two days. As control cells, human peripheral blood mononuclear cells (PBMC) were isolated from buffy coats of healthy donors (kindly provided by the Blood Center of the Hospital of Battipaglia, Salerno, Italy) by using standard Ficoll−Hypaque gradients. […] Proliferation of PBMC was induced by phytohemagglutinin (PHA) (10 µg mL^−1). Tumor and PBMC cells were treated with different concentrations of geraniin or 17-AAG to evaluate their cytotoxic effects. Stock solutions of geraniin (50 mM in DMSO) and 17-AAG (10 mM in DMSO) were stored a −20°C in the dark and diluted just before addition to the sterile culture medium. In all the experiments, the final concentration of DMSO was 0.10% (v/v).
# Jurkat (2×10^4/well) and HeLa (5000/well) cells were seeded in triplicate in 96 well−plates and incubated for 24 h in the absence or presence of different concentrations of geraniin (between 0,5 µM to 50 µM) or 17-AAG (between 0,5 nM to 10 µM).
# The number of viable cells was determined by using a [3–4,5-dimethyldiazol-2-yl]-2,5-diphenyl tetrazolium bromide (MTT, Sigma-Aldrich) conversion assay, according to the method described by Mosmann. […] The absorbance was measured with a microplate reader (Titertek multiskan MCC7340, LabSystems, Vienna, VA, USA) equipped with a 620 nm filter. […]
# [2] = tested on: PBMC (human Peripheral Blood Mononuclear Cells); assay: Cytotoxicity in PHA-stimulated proliferating PBMC; format: cell-based; settings: 24 h, trypan blue, only at high doses
# Experimental: as §1, with “Tumor and PBMC cells were treated with different concentrations of geraniin or 17-AAG to evaluate their cytotoxic effects.” left out
# The number of viable cells was determined by using a [3–4,5-dimethyldiazol-2-yl]-2,5-diphenyl tetrazolium bromide (MTT, Sigma-Aldrich) conversion assay, according to the method described by Mosmann. Briefly, following the treatment, 25 µL of MTT (5 mg/mL in PBS) was added and the cells were incubated for additional 3 h at 37°C. Thereafter, cells were lysed and suspended with 100 µL of buffer containing 50% (v/v) N,N-dimethylformamide, 20% SDS (pH 4.5). The absorbance was measured with a microplate reader (Titertek multiskan MCC7340, LabSystems, Vienna, VA, USA) equipped with a 620 nm filter. Cell population growth inhibition was tested by cytometric counting (trypan blu exclusion).
# Jurkat cells = assay: Cell cycle and hypodiploidy by flow cytometry (PI), Jurkat; format: cell-based, human; settings: 24 h, geraniin 0.7 µM, 17-AAG 10 µM
# Experimental: (§2) Cell DNA content was measured by propidium iodide (PI) incorporation into permeabilized cells, as described by Nicoletti et al.. Briefly, the cells were harvested after geraniin or 17-AAG treatments were washed with cold PBS and incubated with a PI solution (0.1% sodium citrate, 0.1% Triton X-100 and 50 µg mL^−1 of prodium iodide, Sigma-Aldrich, 10 µg/ml Rnase A) for 30 min at room temperature. Data from 10.000 events per sample were collected by a FACScalibur flow cytometer (Becton Dickinson, San José, CA) and cellular debris was excluded from analysis by raising the forward scatter threshold. The percentage of cells in the sub G0/G1 phase, apoptotic fraction, was quantified using CellQuest software (Becton Dickinson). The distribution of cells in G0/G1, S, G2/M phases was determined using ModFit LT cell cycle analysis software (Becton Dickinson). Results were expressed as a mean ± SD of three experiments performed in triplicate.
# (§3) Figure 6 Effects of geraniin and 17-AAG on cell cycle progression. Percentage of cell cycle stages was analyzed by flow cytometry, (A) PI-stained viable Jurkat cells treated with DMSO, 0.7 µM geraniin or 10 µM 17-AAG for 24 h.
# HeLa cells [3] = assay: Cell cycle and hypodiploidy by flow cytometry (PI), HeLa; format: cell-based, human; settings: 24 h, geraniin 5 µM, 17-AAG 0.2 µM
# Experimental: as §2, §3
# [4] = tested on: Hsp70, Hsp90 and Hsp90 client proteins in Jurkat cells; assay: Western blot of Hsp70 and Hsp90 client proteins, Jurkat; format: cell-based, human; settings: 24 h
# Experimental: (§4) Treated cells were harvested and disrupted by freeze−thawing in RIPA buffer (50 mM Hepes, 10 mM EDTA, 150 mM NaCl, 1% NP-40, 0.5% sodium deoxycholate, 0.1% SDS, pH 7.4), supplemented with protease inhibitors cocktail (Sigma-Aldrich). Cell debris was removed by centrifugation at 4°C and the supernatant protein concentration was determined, according to the Bio-Rad Protein assay (Biorad Laboratories, CA, USA). Total proteins (30 µg) were separated by SDS-PAGE under denatured reducing conditions. Separated proteins were then transferred to nitrocellulose membranes and blocked for 3 h with a solution containing 3% BSA in 50 mM Tris, 200 mM NaCl, 0.1% Tween 20, before incubation at 4°C overnight with the different primary antibodies (diluted 1∶1000) against specific proteins. After washing, the membranes were incubated with an appropriate peroxidase-conjugate secondary antibodies at room temperature (1 h). Immunoreactive protein bands were detected by enhanced chemiluminescence reagent (ECL, Rockford, USA), according to the manufacturer’s instructions. Quantitative densitometry analyses were performed using a Gel Doc 2000 system (Biorad Laboratories, CA, USA).
# Figure 7 Effect of geraniin on Hsp90 client protein levels. Equal amounts (30 µg) of whole-cell lysates were separated on SDS-PAGE and client proteins were visualized by western blot analysis using specific antibodies. Actin was used as loading control. […] The blots shown are representative of three different experiments with similar results.
# [5] = tested on: Hsp70, Hsp90 and Hsp90 client proteins in HeLa cells; assay: Western blot of Hsp70 and Hsp90 client proteins, HeLa; format: cell-based, human; settings: 24 h
# Experimental: as §4
# Figure 7 Effect of geraniin on Hsp90 client protein levels. Equal amounts (30 µg) of whole-cell lysates were separated on SDS-PAGE and client proteins were visualized by western blot analysis using specific antibodies. Actin was used as loading control. Total cellular proteins were extracted 24 h after treatment with geraniin (2.5 µM, 5 µM and 10 µM) in Jurkat cells (A) or geraniin (1 µM, 0.7 µM and 0.5 µM) in HeLa cells (B), ctrl = control cells treated with DMSO). The blots shown are representative of three different experiments with similar results.
# [6] = IC50 and lower and higher concentrations
structure (smiles),measurement,setting,value
"O=C1O[C@H]2[C@@H]3OC(=O)c4cc(O)c(O)c(O)c4-c4c(cc(O)c(O)c4O)C(=O)OC[C@H]2O[C@@H](OC(=O)c2cc(O)c(O)c(O)c2)[C@@H]3OC(=O)c2cc(O)c(O)c3c2[C@@H]2C1=CC(=O)[C@](O)(O3)C2(O)O [Compound 54, geraniin]",IC50,HeLa cells [1],5.1 ± 0.2 µM
same,cytotoxic effects in control PBMC,[2],Minimal cytotoxic effects
same,cell cycle arrest,Jurkat cells,G2/M arrest
same,percentage of cells with hypodiploid nuclei,Jurkat cells,9.75±1.02%
same,cell cycle arrest,HeLa cells [3],G2/M arrest
same,percentage of cells with hypodiploid nuclei,HeLa cells [3],16.2±0.7%
same,Hsp70 expression increase,[4]; 1 µM geraniin,3.5±0.12 fold
same,level of Akt,[4],unaffected
same,"level of the client proteins c-Raf, pAkt and EGFR",[4]; [6],dose-dependent decrease
same,Hsp70 expression increase,[5]; 10 µM geraniin,2.7±0.09 fold
same,level of Akt,[5],unaffected
same,"level of the client proteins c-Raf, pAkt and EGFR",[5]; [6],dose-dependent decrease
